Test results published in patent publication US20230220037A1, “NOVEL USE” (GlaxoSmithKline Intellectual Property (No.3) Limited, priority 0001, published 2023).
“Also recorded” adds a separate entry of the source. Blank lines part the entries; values can stand above or below the compound they belong to.

What was measured:
TRPM3 [1] = type: cell-based, C57BL/6NJ mice and Sprague Dawley rats; conditions: cultured DRG neurons; agonist 30 min at 37° C.; PS 100 μM; ELISA
TRPM3 [2] = type: cell-based, C57BL/6NJ mice and Sprague Dawley rats; conditions: cultured TG neurons; agonist 30 min at 37° C.; ELISA
TRPM3 [3] = assay: CGRP release assay, wild type and Trpm3 knock out DRG and TG neurons; type: cell-based, mouse; conditions: for CGRP release from Trpm3 deficient sensory neurons: Trpm3 knock out DRG and TG neurons; for CGRP release from wild type sensory neurons: wild type DRG and TG neurons
TRPM3 [4] = type: cell-based, mouse; conditions: for TRPM3 dependence of agonist-induced PACAP release: mouse DRG and TG cells, wild type vs Trpm3 knockout
rats [5] = assay: Five-day rat dural infusion migraine model, periorbital von Frey testing; type: in vivo; conditions: for Sensitivity to periorbital von Frey stimulation compared to vehicle treated animals: Day 5 (after 4 infusions)
Experimental: The five-day rat Dural infusion migraine model is based on repeated inflammatory dural stimulation to mimic the repeated activation of dural afferents believed to occur in patients with recurrent migraine headache. In this model, rats are tested in the periorbital region for mechanical allodynia (a pain response to stimuli which are not normally painful) using von Frey fibres, which are small calibrated fibres which deliver a calibrated amount of force.
The surgery, infusion, and testing followed the modification of the method of Oshinsky & Gomoncharconsiri, 2007, supra. Briefly, rats were habituated and trained for 1-2 weeks and then fitted with a stainless-steel cannula (22GA, Plastics One) under isoflurane anaesthesia. […] Special attention was given not to disturb the dura. A custom flange guide cannula (22GA, Plastics One) was inserted into the hole (cut 0.5 mm below pedestal). The cannula was fixed to the bone with small screws and dental cement. A dummy that extended just past the end of the cannula was inserted to prevent scar tissue from forming, and thus clogging the cannula. Animals were allowed 1-2 weeks of recovery before testing and infusions began.
Periorbital thresholds were monitored during the recovery period to ensure the thresholds returned to pre-surgery baselines. […] Extra animals were included to account for any post-surgery animal that needed to be excluded.
After recovering from surgery, animals were infused supra-durally with treatments according to Table 1 for 5 consecutive days. Under isoflurane, the animal's nose was place in the nose cone of the anaesthesia machine. Using a haemostat, the base of the flange cannula was clasped, and the dummy cannula was removed. A custom cannula injector was inserted into the flange cannula. With a Hamilton syringe and infusion pump at a rate of 1.759 μl/min 15 μl of formulations was delivered supra-durally.
Animals were randomly assigned to a treatment group (A-C) using a software generated randomization scheme. From the first day of sensitization, each animal was tested routinely (every 2-3 days) for changes in periorbital sensitivity by a blinded investigator.
Pre-infusion sensory testing occurred on Day 1 of the testing schedule to provide a point of comparison for subsequent testing. Sensory testing occurred according to the testing schedule established in Table 1, and prior to infusion when applicable. Sensory testing utilized von Frey filaments with reproducible calibrated buckling forces varying from 0.4-10 g utilizing the Chaplan up and down method. Allodynia was tested by perpendicularly touching the periorbital region causing slight buckling of the filament for approximately 5 seconds. Based on the response pattern and the force of the final filament, the periorbital threshold (g) was calculated (Chaplan et al., 1994, Quantitative assessment of tactile allodynia in the rat paw. Journal of neuroscience methods, 53(1), 55-63). The supra-dural infusions were above the dura in the right brain hemisphere; therefore, the right periorbital threshold data only was recorded. A positive response was characterized by several behavioural criteria: stroking the face with a forepaw, head withdrawal from the stimulus, and head shaking.

TRPM3 [6] = biological target: T1, TRPM3 (Mus musculus, UniProt J9SQF3); conditions: Held et al., PNAS 2015; cited from earlier work
T1 sequence (J9SQF3 whole entry): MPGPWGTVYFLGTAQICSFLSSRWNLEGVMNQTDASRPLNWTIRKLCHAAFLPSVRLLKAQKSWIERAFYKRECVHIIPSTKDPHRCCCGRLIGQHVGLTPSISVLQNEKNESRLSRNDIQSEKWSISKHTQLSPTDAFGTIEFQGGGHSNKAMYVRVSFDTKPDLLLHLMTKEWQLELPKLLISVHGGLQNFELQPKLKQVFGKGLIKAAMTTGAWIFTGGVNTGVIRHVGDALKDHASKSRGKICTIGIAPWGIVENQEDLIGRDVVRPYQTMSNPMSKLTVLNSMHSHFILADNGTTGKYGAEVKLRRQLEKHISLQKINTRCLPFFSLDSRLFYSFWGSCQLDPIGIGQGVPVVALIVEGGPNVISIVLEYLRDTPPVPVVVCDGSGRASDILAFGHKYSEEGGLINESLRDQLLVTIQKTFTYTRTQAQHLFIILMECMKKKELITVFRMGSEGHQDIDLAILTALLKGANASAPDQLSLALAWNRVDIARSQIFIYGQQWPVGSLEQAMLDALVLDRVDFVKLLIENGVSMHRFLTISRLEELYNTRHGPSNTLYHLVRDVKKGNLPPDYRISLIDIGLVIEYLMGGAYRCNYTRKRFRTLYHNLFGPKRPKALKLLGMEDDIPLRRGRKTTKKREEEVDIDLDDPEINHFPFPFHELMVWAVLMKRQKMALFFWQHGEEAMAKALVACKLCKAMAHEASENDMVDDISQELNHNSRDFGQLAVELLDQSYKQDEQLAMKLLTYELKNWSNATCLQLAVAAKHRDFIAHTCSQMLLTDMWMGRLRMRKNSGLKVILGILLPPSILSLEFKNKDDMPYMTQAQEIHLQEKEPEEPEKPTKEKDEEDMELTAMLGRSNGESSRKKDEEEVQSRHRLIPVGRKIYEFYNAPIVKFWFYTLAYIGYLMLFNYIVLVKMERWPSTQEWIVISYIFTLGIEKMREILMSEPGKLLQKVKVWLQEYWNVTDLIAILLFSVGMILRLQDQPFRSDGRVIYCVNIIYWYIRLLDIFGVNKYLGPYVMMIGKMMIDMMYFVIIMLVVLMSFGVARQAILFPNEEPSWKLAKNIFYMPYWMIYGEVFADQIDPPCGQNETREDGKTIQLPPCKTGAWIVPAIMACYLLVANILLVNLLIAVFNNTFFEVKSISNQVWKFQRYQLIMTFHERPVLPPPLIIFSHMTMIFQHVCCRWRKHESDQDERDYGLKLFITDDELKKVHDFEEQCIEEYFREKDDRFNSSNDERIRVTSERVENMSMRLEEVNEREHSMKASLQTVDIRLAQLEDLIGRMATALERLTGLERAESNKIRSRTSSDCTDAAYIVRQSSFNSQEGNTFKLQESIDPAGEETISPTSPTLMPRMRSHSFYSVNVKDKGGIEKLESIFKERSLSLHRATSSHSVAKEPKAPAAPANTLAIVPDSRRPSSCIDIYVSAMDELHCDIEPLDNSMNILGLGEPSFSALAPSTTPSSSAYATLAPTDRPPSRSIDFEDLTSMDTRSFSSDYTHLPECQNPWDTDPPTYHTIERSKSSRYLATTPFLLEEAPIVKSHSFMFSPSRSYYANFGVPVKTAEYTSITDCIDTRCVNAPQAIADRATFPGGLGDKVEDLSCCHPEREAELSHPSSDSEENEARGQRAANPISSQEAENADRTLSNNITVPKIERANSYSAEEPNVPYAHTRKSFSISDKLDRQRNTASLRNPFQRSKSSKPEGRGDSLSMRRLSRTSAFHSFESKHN
TRPM3 (SEQ ID NO: 2) = biological target: T2, TRPM3 (SEQ ID NO: 2) (Homo sapiens, UniProt Q9HCF6); assay: Calcium mobilisation assay, HEK MSR II cells expressing canonical TRPM3; type: cell-based; conditions: for Relative agonist potency of the isomers of CIM0216 in calcium mobilisation assay: R-isomer vs S-isomer
T2 construct: expressed in transfected cells; host or cells: HEK MSR II cells transduced with BacMam virus (codon optimised cDNA)
T2 sequence (Q9HCF6 1-1707 isoform Q9HCF6-2): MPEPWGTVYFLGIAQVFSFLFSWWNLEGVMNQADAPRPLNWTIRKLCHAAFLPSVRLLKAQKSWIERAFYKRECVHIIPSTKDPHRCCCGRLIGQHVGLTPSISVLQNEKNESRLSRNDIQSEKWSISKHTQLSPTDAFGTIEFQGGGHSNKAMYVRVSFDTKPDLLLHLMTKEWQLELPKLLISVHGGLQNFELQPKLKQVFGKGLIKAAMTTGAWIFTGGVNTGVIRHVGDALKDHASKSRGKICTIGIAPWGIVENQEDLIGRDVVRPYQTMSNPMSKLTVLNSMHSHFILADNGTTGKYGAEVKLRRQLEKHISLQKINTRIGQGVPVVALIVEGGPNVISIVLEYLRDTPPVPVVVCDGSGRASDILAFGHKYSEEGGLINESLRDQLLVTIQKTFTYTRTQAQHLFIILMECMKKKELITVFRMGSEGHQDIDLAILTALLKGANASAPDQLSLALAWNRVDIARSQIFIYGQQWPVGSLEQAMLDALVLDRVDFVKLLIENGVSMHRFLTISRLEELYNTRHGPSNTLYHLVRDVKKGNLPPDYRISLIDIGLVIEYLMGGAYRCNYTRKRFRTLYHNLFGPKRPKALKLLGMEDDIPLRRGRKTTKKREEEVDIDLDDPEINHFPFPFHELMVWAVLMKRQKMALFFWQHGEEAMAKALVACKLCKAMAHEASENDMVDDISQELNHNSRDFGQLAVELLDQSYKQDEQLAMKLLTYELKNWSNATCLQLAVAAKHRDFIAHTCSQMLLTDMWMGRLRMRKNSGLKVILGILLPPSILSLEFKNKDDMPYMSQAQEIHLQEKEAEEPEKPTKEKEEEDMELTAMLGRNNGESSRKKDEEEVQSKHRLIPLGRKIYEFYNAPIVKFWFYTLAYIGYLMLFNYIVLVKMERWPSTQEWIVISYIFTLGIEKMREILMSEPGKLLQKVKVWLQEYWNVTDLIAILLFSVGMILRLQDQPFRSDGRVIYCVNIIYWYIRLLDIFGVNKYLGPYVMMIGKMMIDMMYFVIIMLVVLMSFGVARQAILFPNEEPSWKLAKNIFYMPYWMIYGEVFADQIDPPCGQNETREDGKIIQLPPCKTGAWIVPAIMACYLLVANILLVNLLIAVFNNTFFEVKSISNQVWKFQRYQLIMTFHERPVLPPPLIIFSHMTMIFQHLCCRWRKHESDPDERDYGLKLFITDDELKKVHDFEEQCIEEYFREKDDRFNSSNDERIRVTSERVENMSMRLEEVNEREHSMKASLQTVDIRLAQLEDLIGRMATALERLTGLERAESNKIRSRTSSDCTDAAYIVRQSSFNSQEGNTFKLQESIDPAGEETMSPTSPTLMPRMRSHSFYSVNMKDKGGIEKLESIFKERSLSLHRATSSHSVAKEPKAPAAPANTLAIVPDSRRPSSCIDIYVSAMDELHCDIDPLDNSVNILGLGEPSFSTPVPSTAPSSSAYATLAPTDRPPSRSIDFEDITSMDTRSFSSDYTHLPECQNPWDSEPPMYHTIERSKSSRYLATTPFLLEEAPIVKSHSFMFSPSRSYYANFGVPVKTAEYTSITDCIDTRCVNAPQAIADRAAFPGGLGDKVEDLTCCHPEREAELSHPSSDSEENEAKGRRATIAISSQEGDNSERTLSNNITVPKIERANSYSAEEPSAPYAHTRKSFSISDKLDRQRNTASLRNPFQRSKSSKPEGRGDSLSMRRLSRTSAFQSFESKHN
Experimental: (§1) Example 3—Calcium mobilisation assay and cell lines Calcium mobilisation assays were performed in HEK MSR II cells loaded with the calcium indicator dye Fluo4. The cells were induced to express TRPM3 (SEQ ID NO: 2) or mutants thereof by transducing them with Bacmam virus containing the codon optimised cDNA sequence for the required TRPM3 variant at a multiplicity of infection of approximately 40 for 48 hours prior to the experiment. Cells were incubated in the presence of FLUO4-AM and TRPM3 inhibitors for approx 1.5 hrs prior to transfer to a FLIPR where the cells were treated with TRPM3 agonists to induce calcium mobilisation. Fluo4 fluorescence was monitored for 10 min. As a positive control the cells were then treated with the calcium ionophore ionomycin and the fluorescence monitored for a further 3 min.

PACAP-38 = conditions: treatment with sumatriptan; cited from earlier work
rats [7] = conditions: inflammatory soup infusion; historical data; cited from earlier work
[8] = biological target: T3, variant of SEQID NO: 2 having the R1670Q mutation (Homo sapiens, UniProt Q9HCF6, R1695Q); assay: Calcium mobilisation assay, HEK MSR II cells expressing TRPM3 R1670Q variant; type: cell-based
T3 construct: expressed in transfected cells; host or cells: HEK MSR II cells transduced with BacMam virus (codon optimised cDNA)
T3 sequence (Q9HCF6 1-1707 isoform Q9HCF6-2 R1670Q): as the sequence (Q9HCF6 1-1707 isoform Q9HCF6-2) above, with R1670Q counted along it
Experimental: as §1

TRPM3 [9] = biological target: T1, TRPM3; parameters: trigeminal neurons from mice; host or cells: trigeminal neurons from mice; conditions: Vriens et al., Neuron 2011; cited from earlier work
[10] = supra-dural infusion 5 days, Pregnenolone sulphate 5 mM, CIM0216 215 μM
[11] = HEK MSR II cells, Bacmam transduction

Compound: Cc1cc(NC(=O)C(c2ccccc2)N2CCCc3ccccc32)no1 (racemic) [CIM0216, 2-(3,4-dihydroquinolin-1(2H)-yl)-N-(5-methylisoxazol-3-yl)-2-phenylacetamide]
CGRP release from DRG neurons induced by TRPM3 agonist (TRPM3 [1]): induced a concentration dependent release of CGRP; also recorded: induce release of CGRP
CGRP release from TG neurons induced by TRPM3 agonist (TRPM3 [2]): induced a concentration dependent release of CGRP; also recorded: stimulate release of CGRP
CGRP release from Trpm3 deficient sensory neurons (TRPM3 [3]): absent; also recorded: lacking
CGRP release from wild type sensory neurons (TRPM3 [3]): dose-dependent release of CGRP
TRPM3 dependence of agonist-induced PACAP release (TRPM3 [4]): dependent on TRPM3
Sensitivity to periorbital von Frey stimulation compared to vehicle treated animals (rats [5]): effective in increasing sensitivity to periorbital von Frey (VF) stimulation as early as Day 5
Mechanical allodynia in the periorbital region (von Frey thresholds) (rats [5]; [10]): induce mechanical allodynia in the periorbital region of rats; also recorded: trigger mechanical allodynia in the periorbital region
Overt adverse effects / body weight (rats [5]; [10]): do not cause overt adverse effects
CGRP release from isolated mouse hind paw skin (TRPM3 [6]): induced to release CGRP

Relative agonist potency of the isomers of CIM0216 in calcium mobilisation assay (TRPM3 (SEQ ID NO: 2); listed as (R)-2-(3,4-dihydroquinolin-1(2H)-yl)-N-(5-methylisoxazol-3-yl)propenamide): more potent agonist than the (S)-isomer
Compound: Cc1cc(NC(=O)[C@@H](C)N2CCCc3ccccc32)no1 (single isomer, unassigned) [R-isomer]
Relative agonist potency of the isomers of CIM0216 in calcium mobilisation assay (TRPM3 (SEQ ID NO: 2)): more potent agonist compared to the S-isomer

Compound: COc1cc(CNC(=O)CCCC/C=C/C(C)C)ccc1O [capsaicin]
CGRP release from Trpm3 deficient sensory neurons (TRPM3 [3]): could be induced by capsaicin
CGRP release from Trpm3 deficient sensory neurons (TRPM3 [3]; listed as Capsaicin): evoked CGRP release
PACAP release from Trpm3 knockout cells (TRPM3 [4]; Trpm3 knockout mouse DRG and TG cells): still responsive

Compound: CNS(=O)(=O)Cc1ccc2[nH]cc(CCN(C)C)c2c1 [sumatriptan]
PACAP-38 levels (PACAP-38): decreased PACAP-38 levels
Mechanical nociception sensitivity (rats [7]): alleviated

Compound: pregnenolone sulfate
CGRP release from DRG neurons induced by TRPM3 agonist (TRPM3 [1]): increased release of CGRP; also recorded: induce release of CGRP
CGRP release from TG neurons induced by TRPM3 agonist (TRPM3 [2]): increased release of CGRP; also recorded: demonstrated to be concentration dependent; also recorded: stimulate release of CGRP
CGRP release from Trpm3 deficient sensory neurons (TRPM3 [3]): absent
CGRP release from Trpm3 deficient sensory neurons (TRPM3 [3]; listed as PS): lacking
CGRP release from wild type sensory neurons (TRPM3 [3]): dose-dependent release of CGRP
TRPM3 dependence of agonist-induced PACAP release (TRPM3 [4]): dependent on TRPM3
Increase in FLUO4 fluorescence, canonical TRPM3 (TRPM3 (SEQ ID NO: 2); [11]): induced concentration-dependent increases in FLUO4 fluorescence
Increase in FLUO4 fluorescence, R1670Q variant [8, 11]: induced concentration-dependent increases in FLUO4 fluorescence
Potency at the R1670Q variant relative to canonical TRPM3 ([8]; greater at R1670Q, equal multiplicities of infection): 1.8 fold
Maximal fold change in fluorescence at R1670Q variant relative to canonical ([8]; larger at R1670Q, equal multiplicities of infection): 26%
Sensitivity to periorbital von Frey stimulation compared to vehicle treated animals (rats [5]): effective in increasing sensitivity to periorbital von Frey (VF) stimulation as early as Day 5
Mechanical allodynia in the periorbital region (von Frey thresholds) (rats [5]; [10]): induce mechanical allodynia in the periorbital region of rats; also recorded: trigger mechanical allodynia in the periorbital region
Inward current in trigeminal neurons (TRPM3 [9]): induced an inward current
